# Assay results from publication PMC3797749, “Functional Characterisation of the Maturation of the Blood-Brain Barrier in Larval Zebrafish” (PLoS ONE, 2013).
# Key:
# zebrafish larvae [1] = assay: in vivo; conditions: for Absorption (whole body) (% uptake): 15 µg/ml (5 µg/ml scopolamine) immersion 1 hour, tissue vs medium concentration; for drug level (LC/MS/MS): 5 µg/ml 1 hour
# Experimental: (§1) Initial drug exposure assays were performed in larval zebrafish to identify a sufficiently high concentration of drug that could be detected by liquid chromatography/tandem mass spectrometry (LC/MS/MS) analysis without causing toxicity. Maximum tolerated concentration (MTC) was determined using n=6 larvae per group. […] Compounds of interest were prepared as 2 mg/ml stocks in dimethyl sulfoxide (DMSO). […] Larvae were incubated in the drug for 1 hour at room temperature then anaesthetised on ice. For whole uptake analysis, anaesthetised larvae were transferred to 1.5 ml microfuge tubes and all excess liquid was removed. 100 µl ice cold PBS was added, samples were briefly centrifuged and all excess liquid was removed. For brain versus body uptake analysis, larvae were anaesthetised by chilling prior to decapitation using fine iridectomy scissors and No. 5 watchmaker forceps. Head and body tissue samples were collected in separate microfuge tubes on ice and excess liquid removed. 100 µl ice cold PBS was added and samples were briefly centrifuged and all excess liquid removed. The weight of the tissue sample was measured and the samples were frozen at -20 °C prior to extraction for LC/MS/MS.
# (§2) Test compound was added to the well containing 50 µg/ml verapamil and larvae were incubated for a further hour at room temperature prior to tissue collection as described. For subsequent LC/MS/MS analysis, tissue samples were thawed and after addition of an internal standard (clozapine) extracted into an organic solvent (tertiary-butyl methyl ether, t-bme). […] The analytes and internal standard were ionised under atmospheric pressure chemical ionisation (APCI) conditions operating in positive ion mode. Detection was via tandem mass spectrometry (MS/MS) using selected ion monitoring (SIM). All analyses were performed using a Finnigan LCQ quadrupole ion trap mass spectrometer.
# (§3) A panel of 5 drugs known to either cross or not cross the BBB in mammals were selected to test in zebrafish larvae. Larvae of different ages were exposed to these compounds at non-toxic concentrations for 1 hour prior to collection of head and trunk tissue for analysis of drug concentration. A generic extraction method was developed and LC/MS/MS was performed to analyse the concentration of drug in head and trunk tissue in larvae of different ages. Drug/tissue concentrations were normalised against a standard and the relative amount of drug in head and trunk samples was compared to determine whether the drug distribution altered with larval age (Table 2).
# in vivo = conditions: zebrafish, in vivo, immersion 1 hour
# Experimental: as §1, §2, §3
# zebrafish larvae [2] = assay: Dye exclusion experiments (pericardial injection, brain fluorescence quantification); type: in vivo
# Experimental: Stocks of 2% Evans blue (961 Da) and 10% sodium fluorescein (376 Da) in 0.9% saline were prepared and stored at 4 °C. Larvae were anaesthetised by immersion in 0.2 mg/ml 3-amino benzoic acid (MS222) prior to being immobilised and positioned laterally in 3% methyl cellulose in embryo medium such that the heart was accessible. Larvae and juveniles from 2 days post-fertilisation (d.p.f.) to 30 d.p.f. were injected with 0.5 to 2 nl (depending on age) of dye or saline control into the pericardial region, using a standard zebrafish microinjection apparatus. Fish were transferred to fresh embryo medium to recover from anaesthesia, then viewed using a fluorescence dissecting microscope at 1 hour intervals to determine the time of uptake of the dye into the circulation and the time at which dye had permeated from the circulation into non-vascular body tissue. Representative images of dye distribution in vivo were taken on a Zeiss AxioZoom V16 microscope with Apotome. Dye and saline injected larvae were anaesthetised at 4 or 6 hours after injection and fixed in 4% paraformaldehyde in PBS. Ten larvae per age group and injection treatment were embedded in Sakura Tissue-Tek OCT (Bayer, Newbury, UK) and frozen parasagittal sections were cut at 10 µm thickness.
# Sections were visualised without mounting medium by fluorescence microscopy on an Olympus BX51 microscope. Three midline sagittal sections from each larva were identified and images were captured using a ColorView camera (Olympus) and AnalySis software (Soft Imaging System). The fluorescence intensity within the brain was quantified for each midline section of each larva in each treatment group using colour threshold and area measurements in AnalySis. Mean values, standard deviations and Student’s t-tests were calculated using Excel software (Microsoft Office).
# Rhodamine 123 (R123) was dissolved in 10% ethanol/0.9% saline to make a 0.5 mg/ml stock. […] Quantification of fluorescence in the brain was performed as described above.
# [3] = known from mammals, no reference given; cited from earlier work
# Abcb1/4/5 = assay: Rhodamine 123 dye exclusion in the presence of verapamil; type: in vivo, zebrafish; conditions: 8 d.p.f. and 10 d.p.f.; verapamil 50 µg/ml; 3 hours after injection
# Experimental: Dye exclusion experiments on larvae at 3, 5, 8 and 10 d.p.f. were performed as described above using 0.2 nl R123. Some larvae were exposed to verapamil at 50 µg/ml for 2 hours prior to and during intrapericardial injection of R123 and for 3 hours after injection. At 3 hours after injection, larvae were anaesthetised and fixed in 4% PFA prior to processing for frozen sections. Quantification of fluorescence in the brain was performed as described above.
# [4] = ref ChemIDplus; cited from earlier work
# [5] = 15 µg/ml, Head concentration, 5 d.p.f.
# [6] = 15 µg/ml, Head concentration, 8 d.p.f.
# [7] = 15 µg/ml, Trunk concentration, 5 d.p.f.
# [8] = 15 µg/ml, Trunk concentration, 8 d.p.f.
# [9] = pericardial injection, brain fluorescence on frozen sections vs saline
compound,measurement,setting,value
Clc1ccc2c(c1)CCc1cccnc1C2=C1CCNCC1 [Desloratadine],Absorption (whole body) (% uptake),zebrafish larvae [1]; 5 d.p.f.,14.8%
same,Absorption (whole body) (% uptake),zebrafish larvae [1]; 10 d.p.f.,28.5%
CN(C)CCOC(c1ccccc1)c1ccccc1 [Diphenhydramine],concentration at 1 h,in vivo; [5],21600 ng/g
same,concentration at 1 h,in vivo; [6],31200 ng/g
same,concentration at 1 h,in vivo; [7],21100 ng/g
same,concentration at 1 h,in vivo; [8],24000 ng/g
same,concentration at 1 h,"in vivo; Head concentration, 10 d.p.f.",52800 ng/g
same,concentration at 1 h,"in vivo; Trunk concentration, 10 d.p.f.",54800 ng/g
Cc1cc(-c2ccc(/N=N/c3ccc4c(S(=O)(=O)O)cc(S(=O)(=O)O)c(N)c4c3O)c(C)c2)ccc1/N=N/c1ccc2c(S(=O)(=O)O)cc(S(=O)(=O)O)c(N)c2c1O [Evans blue],larval age at which the injected dye is excluded from the brain,"zebrafish larvae [2]; zebrafish, in vivo, 3 h",5 d.p.f.
O=C(CCCN1CCC(O)(c2ccc(Cl)cc2)CC1)c1ccc(F)cc1 [Haloperidol],concentration at 1 h,in vivo; [5],116000 ng/g
same,concentration at 1 h,in vivo; [6],136000 ng/g
same,concentration at 1 h,in vivo; [7],104000 ng/g
same,concentration at 1 h,in vivo; [8],149000 ng/g
same,concentration at 1 h,"in vivo; Head concentration, 10 d.p.f.",113000 ng/g
same,concentration at 1 h,"in vivo; Trunk concentration, 10 d.p.f.",101000 ng/g
same,"amount of drug absorbed, larval tissue as % of the medium concentration","zebrafish larvae [1]; 1 hour exposure, lowest and highest value over drugs and ages",949%
same,Absorption (whole body) (% uptake),zebrafish larvae [1]; 5 d.p.f.,732.6%
same,Absorption (whole body) (% uptake),zebrafish larvae [1]; 8 d.p.f.,949.5%
same,Absorption (whole body) (% uptake),zebrafish larvae [1]; 10 d.p.f.,713.5%
same,BBB penetration in mammals,[3],(penetrant)
COC(=O)c1ccccc1-c1c2ccc(=N)cc-2oc2cc(N)ccc12 [Rhodamine 123],larval age at which the injected dye is excluded from the brain,zebrafish larvae [2]; [9],8 d.p.f.
same,exclusion of R123 from the brain in the presence of verapamil,Abcb1/4/5,failed to be excluded
CN1[C@@H]2C[C@@H](OC(=O)[C@H](CO)c3ccccc3)C[C@H]1[C@@H]1O[C@@H]12 [Scopolamine],drug level (LC/MS/MS),zebrafish larvae [1]; 5 d.p.f.,below the detection limits
same,drug level (LC/MS/MS),zebrafish larvae [1]; 8 d.p.f.,below the detection limits
same,Head concentration,"zebrafish larvae [1]; 10 d.p.f., immersion 1 hour",.65 µg/g
same,Trunk concentration,"zebrafish larvae [1]; 10 d.p.f., immersion 1 hour",.63 µg/g
"O=C([O-])c1ccccc1-c1c2ccc(=O)cc-2oc2cc([O-])ccc12.[Na+].[Na+] [Sodium fluorescein, sodium fluorescein]",larval age at which the injected dye is excluded from the brain,zebrafish larvae [2]; [9],10 d.p.f.
Scopolamine N-butyl bromide,LogP,[4],-1.11
